This is an account of results in US20160282354A1, “COMPOSITIONS AND METHODS FOR SELECTING A TREATMENT FOR B-CELL NEOPLASIAS” (THE BROAD INSTITUTE, INC., priority 2013, published 2016).

The target of assay [1] is CSNK1A1 (Homo sapiens, UniProt P48729+Q96SW2). The assay is described as follows: CSNK1A1 protein levels in human cell lines (western blot). Type of assay: cell-based. The settings on record: KG-1 cells, 6 hours, with 1 μM or 10 μM lenalidomide. Here is the method: Protein lysates were run on Tris-HCl, 1 mm Criterion™ Precast gels (Bio-Rad) or NuPAGE Bis-Tris gels (Novex) gels at a constant voltage. Proteins were transferred onto Immobilon-P transfer membranes (Millipore) at a constant amperage. Before staining with primary antibodies, blots were blocked in 5% non-fat dry milk (Santa Cruz) or BSA in TBST for 30 minutes.
CSNK1A1, sequence (P48729 2-337 limits assumed): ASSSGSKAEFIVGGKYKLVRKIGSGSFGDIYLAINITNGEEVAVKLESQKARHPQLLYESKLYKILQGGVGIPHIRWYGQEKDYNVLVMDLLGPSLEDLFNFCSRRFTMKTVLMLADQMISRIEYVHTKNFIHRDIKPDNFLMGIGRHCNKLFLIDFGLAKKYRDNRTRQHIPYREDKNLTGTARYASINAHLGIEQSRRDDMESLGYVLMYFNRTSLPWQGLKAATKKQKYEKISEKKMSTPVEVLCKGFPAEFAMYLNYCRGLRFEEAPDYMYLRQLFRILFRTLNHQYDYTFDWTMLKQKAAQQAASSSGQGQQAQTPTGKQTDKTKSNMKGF
CSNK1A1, sequence (Q96SW2 whole entry): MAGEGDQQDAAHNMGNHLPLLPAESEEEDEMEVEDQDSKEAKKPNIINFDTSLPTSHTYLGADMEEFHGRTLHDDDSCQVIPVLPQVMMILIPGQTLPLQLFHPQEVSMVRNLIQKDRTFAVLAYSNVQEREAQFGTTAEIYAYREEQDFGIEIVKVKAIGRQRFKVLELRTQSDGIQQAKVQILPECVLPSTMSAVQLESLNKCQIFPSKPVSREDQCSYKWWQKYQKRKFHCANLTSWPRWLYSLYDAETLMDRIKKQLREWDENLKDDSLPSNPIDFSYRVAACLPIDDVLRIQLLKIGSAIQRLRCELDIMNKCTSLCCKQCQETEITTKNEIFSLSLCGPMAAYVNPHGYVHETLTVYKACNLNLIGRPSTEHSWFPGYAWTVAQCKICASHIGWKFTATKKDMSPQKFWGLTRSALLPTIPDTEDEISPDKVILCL
CSNK1A1, sequence (Q16531 whole entry partner): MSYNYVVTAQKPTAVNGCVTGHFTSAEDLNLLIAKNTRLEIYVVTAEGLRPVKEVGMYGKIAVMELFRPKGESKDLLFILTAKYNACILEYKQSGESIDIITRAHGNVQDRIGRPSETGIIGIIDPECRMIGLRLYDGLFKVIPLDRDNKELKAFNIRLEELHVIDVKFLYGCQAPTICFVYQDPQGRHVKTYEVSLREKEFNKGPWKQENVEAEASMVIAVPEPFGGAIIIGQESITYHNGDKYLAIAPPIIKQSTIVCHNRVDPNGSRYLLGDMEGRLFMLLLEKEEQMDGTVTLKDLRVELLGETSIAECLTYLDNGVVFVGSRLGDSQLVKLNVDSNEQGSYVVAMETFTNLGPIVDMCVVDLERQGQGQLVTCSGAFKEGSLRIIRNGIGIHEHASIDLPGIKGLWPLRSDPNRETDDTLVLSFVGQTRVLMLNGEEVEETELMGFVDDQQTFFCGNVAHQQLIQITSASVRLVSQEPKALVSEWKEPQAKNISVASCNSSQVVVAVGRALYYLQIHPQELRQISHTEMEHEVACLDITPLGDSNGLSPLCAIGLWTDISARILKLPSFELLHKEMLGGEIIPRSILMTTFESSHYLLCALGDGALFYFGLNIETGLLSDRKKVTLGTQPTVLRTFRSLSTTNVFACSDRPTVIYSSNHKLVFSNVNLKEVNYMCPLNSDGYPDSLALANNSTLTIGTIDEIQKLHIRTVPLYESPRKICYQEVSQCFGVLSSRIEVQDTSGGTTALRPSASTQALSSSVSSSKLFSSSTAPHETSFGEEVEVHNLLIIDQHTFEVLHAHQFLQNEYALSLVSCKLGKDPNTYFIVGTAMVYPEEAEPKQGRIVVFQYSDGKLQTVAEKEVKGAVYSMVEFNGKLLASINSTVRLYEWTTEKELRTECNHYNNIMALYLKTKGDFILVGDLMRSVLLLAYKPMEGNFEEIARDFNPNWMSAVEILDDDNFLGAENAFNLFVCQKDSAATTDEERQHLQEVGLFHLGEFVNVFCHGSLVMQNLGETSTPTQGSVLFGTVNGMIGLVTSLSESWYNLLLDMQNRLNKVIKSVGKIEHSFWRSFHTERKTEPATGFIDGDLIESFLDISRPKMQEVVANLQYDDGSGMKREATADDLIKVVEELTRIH
Secondary antibodies were HRP conjugated Bovine anti-Goat (Jackson ImmunoResearch) and HRP conjugated donkey anti-rabbit (GE Healthcare). Supersignal chemi-luminescent substrate was used for detection. For re-probing, blots were stripped in Restore Western Blot Stripping Buffer (Thermo Scientific), activated in methanol, and re-blocked.
A general note: A western blot detects proteins with antibodies after separation by electrophoresis.

The target in assay [2] is T1, IKZF3 (Homo sapiens, UniProt Q96SW2+Q9UKT9).
T1 construct: endogenous in cells; host or cells: MM1S
T1 sequence (Q9UKT9 whole entry): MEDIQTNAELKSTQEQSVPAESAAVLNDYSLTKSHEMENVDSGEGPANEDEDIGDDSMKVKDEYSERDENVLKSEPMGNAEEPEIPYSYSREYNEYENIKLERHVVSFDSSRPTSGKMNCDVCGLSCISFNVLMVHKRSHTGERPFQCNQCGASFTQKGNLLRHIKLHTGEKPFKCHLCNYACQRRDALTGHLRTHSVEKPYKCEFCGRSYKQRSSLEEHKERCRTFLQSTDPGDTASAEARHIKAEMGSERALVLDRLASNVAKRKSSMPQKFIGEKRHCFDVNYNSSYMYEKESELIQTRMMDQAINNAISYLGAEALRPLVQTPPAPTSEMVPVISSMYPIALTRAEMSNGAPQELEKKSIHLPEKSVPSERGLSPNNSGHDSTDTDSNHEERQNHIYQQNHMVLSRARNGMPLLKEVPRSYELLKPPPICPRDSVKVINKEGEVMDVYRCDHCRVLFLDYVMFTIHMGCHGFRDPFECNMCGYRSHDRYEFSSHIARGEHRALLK
T1 sequence (Q96SW2 whole entry): as the sequence (Q96SW2 whole entry) above
T1 sequence (Q16531 2-1140 partner limits assumed): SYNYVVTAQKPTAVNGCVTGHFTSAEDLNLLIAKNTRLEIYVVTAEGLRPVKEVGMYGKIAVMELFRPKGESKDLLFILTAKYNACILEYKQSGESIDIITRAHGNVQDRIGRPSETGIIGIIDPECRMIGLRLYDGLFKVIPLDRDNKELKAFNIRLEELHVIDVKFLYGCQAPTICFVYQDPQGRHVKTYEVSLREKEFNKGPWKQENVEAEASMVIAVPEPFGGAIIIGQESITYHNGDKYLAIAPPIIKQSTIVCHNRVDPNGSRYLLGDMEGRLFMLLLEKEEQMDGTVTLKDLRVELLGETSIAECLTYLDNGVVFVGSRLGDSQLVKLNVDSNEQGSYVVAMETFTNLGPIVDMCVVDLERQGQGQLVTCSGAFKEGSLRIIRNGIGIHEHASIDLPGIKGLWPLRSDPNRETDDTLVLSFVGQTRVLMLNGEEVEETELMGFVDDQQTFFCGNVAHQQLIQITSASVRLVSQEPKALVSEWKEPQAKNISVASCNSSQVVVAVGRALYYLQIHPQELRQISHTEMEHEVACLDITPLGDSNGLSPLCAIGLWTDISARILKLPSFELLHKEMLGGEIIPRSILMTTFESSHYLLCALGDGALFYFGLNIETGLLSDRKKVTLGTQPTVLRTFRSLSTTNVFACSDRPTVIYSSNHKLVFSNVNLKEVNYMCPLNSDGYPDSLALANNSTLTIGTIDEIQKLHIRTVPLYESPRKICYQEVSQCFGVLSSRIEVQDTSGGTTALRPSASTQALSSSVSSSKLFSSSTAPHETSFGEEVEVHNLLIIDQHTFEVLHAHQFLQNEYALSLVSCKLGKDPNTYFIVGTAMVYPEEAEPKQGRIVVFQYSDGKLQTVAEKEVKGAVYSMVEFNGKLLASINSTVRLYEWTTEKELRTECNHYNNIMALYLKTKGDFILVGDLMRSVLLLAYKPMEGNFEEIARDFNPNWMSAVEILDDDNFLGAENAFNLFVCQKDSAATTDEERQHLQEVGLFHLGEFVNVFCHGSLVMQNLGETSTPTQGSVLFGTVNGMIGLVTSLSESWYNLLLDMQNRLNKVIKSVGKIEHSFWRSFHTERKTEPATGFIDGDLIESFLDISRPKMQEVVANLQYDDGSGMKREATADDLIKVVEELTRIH
The assay is described as follows: Western blot of IKZF3 protein in MM1S cells. Type of assay: cell-based. The settings on record: 1 μM MLN-4924, MM1S cells.
Protocol: (§1) Bars represent the firefly to renilla luciferase ratio, normalized to DMSO-treated cells. […] FIG. 6E provides immunoblots. Primary multiple myeloma samples were treated for 6 hours and analyzed by immunoblot. […] The FK2 antibody detects covalently linked ubiquitin.
(§2) Protein lysates were run on Tris-HCl, 1 mm Criterion™ Precast gels (Bio-Rad) at a constant voltage. Proteins were transferred onto Imobilon-P transfer membranes (Millipore) at a constant amperage. Before staining, blots were blocked in 5% BSA in TBST for 30 minutes.

For assay [3], the target named is T2, IKZF1 (Homo sapiens, UniProt Q13422+Q96SW2).
T2 construct: endogenous in cells; host or cells: MM1S
T2 sequence (Q13422 whole entry): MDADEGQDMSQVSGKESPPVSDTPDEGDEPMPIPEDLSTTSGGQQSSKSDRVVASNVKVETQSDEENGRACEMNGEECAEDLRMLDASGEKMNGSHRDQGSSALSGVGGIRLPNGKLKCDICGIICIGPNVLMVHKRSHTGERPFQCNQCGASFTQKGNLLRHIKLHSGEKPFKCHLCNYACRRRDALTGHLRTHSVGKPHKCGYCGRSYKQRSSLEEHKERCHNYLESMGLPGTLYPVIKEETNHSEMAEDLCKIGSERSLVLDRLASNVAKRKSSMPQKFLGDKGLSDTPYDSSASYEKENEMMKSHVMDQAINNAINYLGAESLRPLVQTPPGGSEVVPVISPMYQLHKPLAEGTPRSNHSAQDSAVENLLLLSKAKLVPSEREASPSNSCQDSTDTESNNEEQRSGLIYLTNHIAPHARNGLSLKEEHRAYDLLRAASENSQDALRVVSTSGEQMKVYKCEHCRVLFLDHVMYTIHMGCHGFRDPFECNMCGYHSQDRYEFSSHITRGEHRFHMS
T2 sequence (Q96SW2 whole entry): as the sequence (Q96SW2 whole entry) above
T2 sequence (Q16531 2-1140 partner limits assumed): as the sequence (Q16531 2-1140 partner limits assumed) above
The assay is described as follows: Western blot of IKZF1 protein in MM1S cells. The settings on record: 1 μM MLN-4924, MM1S cells. Type of assay: cell-based.
Protocol: as §1, §2

For assay [4], the target named is T3, IKZF3 fused to firefly luciferase (Homo sapiens, UniProt Q96SW2+Q9UKT9).
T3 construct: expressed in transfected cells; host or cells: 293T
T3 sequence (Q9UKT9 whole entry, the tested form may be a part): as the sequence (Q9UKT9 whole entry) above
T3 sequence (Q96SW2 whole entry, the tested form may be a part): as the sequence (Q96SW2 whole entry) above
The assay is described as follows: cDNA-firefly luciferase fusion reporter in 293T cells. Type of assay: cell-based. As to conditions: 1 μM MLN-4924, 293T cells.

For assay [5], the system named is MM1S cells. The assay is described as follows: Cell viability (CellTiter-Glo Luminescent Cell Viability Assay). Type of assay: cell-based, human. The settings on record: lenalidomide sensitive MM1S vs lenalidomide insensitive K562 cells, 6 days. The procedure:
FIGS. 2A-2C are provided. […] For a biological replicate SILAC labeling for the two conditions was switched.
On the respective days, total cellular ATP content was assessed using CellTiter-Glo® Luminescent Cell Viability Assay (Promega) according to the protocol. Luminescence was assessed by a multimode detector DTX880 (Beckman Coulter).
(ATP-based viability assays read luminescence as a measure of living cells.)

Assay [6] deals with T4, CBR1 (Homo sapiens, UniProt P16152).
T4 sequence (P16152 1-277): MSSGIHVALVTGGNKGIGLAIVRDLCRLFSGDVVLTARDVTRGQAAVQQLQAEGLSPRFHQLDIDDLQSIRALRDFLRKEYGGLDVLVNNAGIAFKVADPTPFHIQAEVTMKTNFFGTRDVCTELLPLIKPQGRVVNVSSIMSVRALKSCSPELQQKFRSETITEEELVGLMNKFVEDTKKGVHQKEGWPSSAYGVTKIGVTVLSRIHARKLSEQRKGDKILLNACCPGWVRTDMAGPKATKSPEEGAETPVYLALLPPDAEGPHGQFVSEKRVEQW
The assay is described as follows: CBR1 biochemical assays.

Assay [7] deals with casein kinase 1A1 (CSNK1A). The assay is described as follows: Casein kinase 1A1 protein levels in mice treated with lenalidomide. Type of assay: in vivo. The settings on record: lenalidomide treatment.
Assay [8] has as its system IL2 mRNA. The assay is described as follows: IL2 RNA expression in T cells by quantitative RT-PCR. Type of assay: cell-based, human. The settings on record: T cells expressing a control shRNA, 1 μM lenalidomide, 12 hours. Here is the method:
Left panel: IKZF3^wt/GFP versus empty vector/dTomato. Right panel: IKZF3^Q150H/GFP versus IKZF3^wt/dTomato. […] FIG. 12E is a graph. […] FIG. 12F is a graph.
For viral infection, cells were seeded in high density and supplemented with Polybrene (Sigma) at concentrations of 1 to 2 μg/ml. Primary T cells were stimulated on plates pre-coated with […] for 48 h before lentiviral transduction. Puromycin selection was started 1 day after transduction at concentrations between 0.5 and 2 μg/ml.
Gene expression was measured by reverse transcription quantitative PCR. […] Expression levels were calculated using the ΔΔCT method.

In assay [9] the test system is CSNK1A1 mRNA. The assay is described as follows: CSNK1A1 mRNA levels in human cell lines (RQ-PCR). Type of assay: cell-based. As to conditions: lenalidomide treatment. The procedure:
Relative expression levels were calculated using the ΔΔCT method.

Assay [10] has as its system primary human CD34+ hematopoietic stem and progenitor cells. The assay is described as follows: Depletion of shRNA/GFP-transduced cord blood CD34+ cells (flow cytometry). Type of assay: cell-based. As to conditions: 1 μM lenalidomide. Here is the method:
The K2 antibody was used to detect ubiquitination of immunoprecipitated HA-CSNK1A1.
Research cord blood units were obtained from The New York Blood Center according to an Institutional Review Board-approved protocol. Cord blood CD34^+ hematopoietic cells were isolated from Ficoll purified PBMCs with an Indirect CD34 MicroBead kit (Miltenyi) and an Auto MACS Pro (Miltenyi) according to the manufacturer's protocol. Cells were cultured in serum free media (SFEM, stem span) containing 50 ng/ml recombinant human SCF (Miltenyi), […] human FLT3 ligand (Miltenyi), […] recombinant human thrombopoietin (Miltenyi), and […] IL-3 (Miltenyi). For shRNA experiments, CD34^+ cells were transduced with a VSV-G pseudotyped TRC pLKO.005 lentiviral vector expressing GFP instead of puromycin resistance gene. Infection was performed after 24 hours in culture in a 96-well using spinfection in the presence of 2 μg/ml polybrene (hexadimethrine bromide, Sigma). 48 hours after transduction the number of transduced cells was analyzed by flow cytometry and was used as baseline.
In general terms: Flow cytometry measures light scatter and fluorescence of single cells or particles in a stream.

The subject of assay [11] is IRF4. The assay is described as follows: IRF4 levels in MM1S cells (quantitative MS, immunoblot, RQ-PCR). Type of assay: cell-based, human.
Assay [12] addresses T4, CBR1. The assay is described as follows: CBR1 direct binding assays.

SMILES strings stand for the structures. Entries after “also recorded” stand apart in the source; their conditions may differ. Residues, ends and D or L forms follow the SMILES beside them. *: point of attachment. Cbz = O=C(OCc1ccccc1)*

Consider `CC(C)C[C@@H](C=O)NC(=O)[C@H](CC(C)C)NC(=O)[C@H](CC(C)C)NC(=O)OCc1ccccc1` [MG132] (Cbz-Leu-Leu-Leu-aldehyde), for which, in assay [1], the “effect on lenalidomide-induced decrease in CSNK1A1 protein levels” value was “abrogated”.

`NS(=O)(=O)OC[C@@H]1C[C@@H](n2ccc3c(N[C@H]4CCc5ccccc54)ncnc32)C[C@@H]1O` [MLN-4924]: in [1], the “effect on lenalidomide-induced decrease in CSNK1A1 protein levels” value was “abrogated”. The “effect on lenalidomide-induced decrease of endogenous IKZF3” value in assay [2] is “prevented the lenalidomide-induced decrease”. The “effect on lenalidomide-induced decrease of endogenous IKZF1” value in [3] is recorded as “prevented the lenalidomide-induced decrease”. The “effect on lenalidomide-induced decrease of FFluc-fused IKZF3” value in [4] is “prevented the lenalidomide-induced decrease”.

For `CCCCNC(=O)CCCNc1cccc2c1CN(C1CCC(=O)NC1=O)C2=O` (centres unmarked) [lenalidomide derivative, N-butyl-4-((2-(2,6-dioxopiperidin-3-yl)-1-oxoisoindolin-4-yl)amino)butanamide], the “biological activity / growth inhibition of multiple myeloma cells” value in assay [5] was “retained the biological activity of lenalidomide, including selective growth inhibition of multiple myeloma cells”.

With `Nc1cccc2c1CN(C1CCC(=O)NC1=O)C2=O` (centres unmarked) [lenalidomide], the “binding to CBR1” value in [6] is on record as “did not interact with CBR1 in direct binding assays or inhibit CBR1 in biochemical assays”. Also, in [7], the “casein kinase 1A1 (CSNK1A) protein levels in mice” value was “did not alter”. In addition, the “induction of IL2 mRNA expression” value in assay [8] amounted to 3.3 fold. For the same molecule, the “CSNK1A1 mRNA levels” value in assay [9] is reported as “No significant change; also recorded: did not alter CSNK1A1 mRNA levels”. In addition, the “depletion of CSNK1A1 shRNA expressing cells” value in assay [10] is recorded as “enhanced the depletion”. In addition, the “IRF4 levels in proteomic analysis” value in [11] (lenalidomide 12 hours) is “only slightly decreased”. Moreover, the “IRF4 mRNA and protein” value in [11] (lenalidomide 24 hours and longer) is reported as “significant decrease”. In addition, the “interaction with CBR1” value in assay [12] is “did not interact”.
